Among the data in paper PMC7449246, “Natural HDAC‐1/8 inhibitor baicalein exerts therapeutic effect in CBF‐AML” (Clinical and Translational Medicine, 2020) are IC50 values, retold here.

The structures appear in SMILES notation.

The term IC50 denotes the point on the concentration scale where inhibition reaches its midpoint. Low values mean higher potency, high ones lower potency.

In one assay the target is T1, HDAC-1 (Homo sapiens, UniProt Q13547).
T1 construct: gene HDAC1
The assay is described as follows: fluorogenic deacetylase assay with purified HDAC; supported by CETSA in ME-1 cells (Tagg […] to […] °C). The class given is biochemical.

The target of a further assay is T2, HDAC-8 (Homo sapiens, UniProt Q9BY41).
T2 construct: gene HDAC8
T2 sequence (Q9BY41 1-377): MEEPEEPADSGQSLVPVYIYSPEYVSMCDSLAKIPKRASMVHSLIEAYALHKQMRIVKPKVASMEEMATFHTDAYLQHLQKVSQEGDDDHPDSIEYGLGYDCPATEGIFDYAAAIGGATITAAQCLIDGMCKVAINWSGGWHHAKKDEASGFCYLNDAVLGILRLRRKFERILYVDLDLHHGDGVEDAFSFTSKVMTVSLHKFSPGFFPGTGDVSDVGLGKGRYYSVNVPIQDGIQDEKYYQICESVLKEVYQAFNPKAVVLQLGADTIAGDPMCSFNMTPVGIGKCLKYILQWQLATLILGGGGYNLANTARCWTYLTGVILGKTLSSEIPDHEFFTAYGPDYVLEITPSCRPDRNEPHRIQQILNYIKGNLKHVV
The assay is described as above. The class given is biochemical.

T1 sequence (Q13547 whole entry): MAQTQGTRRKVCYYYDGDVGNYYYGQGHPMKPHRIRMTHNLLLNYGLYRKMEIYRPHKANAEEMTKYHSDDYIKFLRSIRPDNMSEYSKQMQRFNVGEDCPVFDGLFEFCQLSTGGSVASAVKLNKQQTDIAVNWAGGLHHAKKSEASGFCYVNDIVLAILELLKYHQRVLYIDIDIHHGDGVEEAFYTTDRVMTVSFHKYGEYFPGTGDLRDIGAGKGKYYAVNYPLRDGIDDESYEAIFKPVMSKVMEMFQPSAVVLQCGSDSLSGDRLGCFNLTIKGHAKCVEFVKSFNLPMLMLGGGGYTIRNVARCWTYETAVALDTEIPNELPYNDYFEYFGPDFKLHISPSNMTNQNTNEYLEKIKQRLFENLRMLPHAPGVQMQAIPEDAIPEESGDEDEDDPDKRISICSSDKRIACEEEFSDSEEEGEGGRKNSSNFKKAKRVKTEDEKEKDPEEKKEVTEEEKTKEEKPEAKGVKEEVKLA

In the case of `O=c1cc(-c2ccccc2)oc2cc(O)c(O)c(O)c12` [Baicalein], the IC50 on HDAC-1 was determined as 46.7 µM; against HDAC-8, 3.95 µM.
